Where two headings read alike, the source gives them in different places. *1 amine or outer side, *2 acyl side, *3 side chain or, on linkers, in order; H or OH if unused. Where a SMILES comes first, the peptide text is derived from it. Bridges are numbered along the chain shown (N, C = ends). [ ]: non-standard residue; d: D form. The star is where a group is joined. X5 = NC(=O)[C@H](CCCCNC(=O)CN1CCN(CC(=O)O)CCN(CC(=O)O)CCN(CC(=O)O)CC1)NC(=O)CCC(=O)NCCCOCCOCCOCCCN*; DOTA = O=C(O)CN1CCN(CC(=O)O)CCN(CC(=O)*)CCN(CC(=O)O)CC1; Trp(5-Cl) = N[C@@H](Cc1c[nH]c2ccc(Cl)cc12)C(=O)O; Pyridine(2,6-diCH2) = c1cc(C[*:1])nc(C[*:2])c1; Trp(5-F) = N[C@@H](Cc1c[nH]c2ccc(F)cc12)C(=O)O; Desaminotyrosyl = O=C(CCc1ccc(O)cc1)*; mXylylene = c1cc(C[*:1])cc(C[*:2])c1; X6 = c1cc(CSCCN[*:2])nc(C[*:1])c1; Cya = N[C@@H](CS(=O)(=O)O)C(=O)O; Hyp = O=C(O)[C@@H]1C[C@@H](O)CN1; Suc = O=C(CCC(=O)[*:2])[*:1]; Thp = NC1(C(=O)O)CCOCC1; Aib = CC(C)(N)C(=O)O
Biological target: T1, GIPR (CHO-K1-hGIPR cells) (Homo sapiens, UniProt P48546)
T1 construct: host or cells: CHO-K1
T1 sequence (P48546 22-466): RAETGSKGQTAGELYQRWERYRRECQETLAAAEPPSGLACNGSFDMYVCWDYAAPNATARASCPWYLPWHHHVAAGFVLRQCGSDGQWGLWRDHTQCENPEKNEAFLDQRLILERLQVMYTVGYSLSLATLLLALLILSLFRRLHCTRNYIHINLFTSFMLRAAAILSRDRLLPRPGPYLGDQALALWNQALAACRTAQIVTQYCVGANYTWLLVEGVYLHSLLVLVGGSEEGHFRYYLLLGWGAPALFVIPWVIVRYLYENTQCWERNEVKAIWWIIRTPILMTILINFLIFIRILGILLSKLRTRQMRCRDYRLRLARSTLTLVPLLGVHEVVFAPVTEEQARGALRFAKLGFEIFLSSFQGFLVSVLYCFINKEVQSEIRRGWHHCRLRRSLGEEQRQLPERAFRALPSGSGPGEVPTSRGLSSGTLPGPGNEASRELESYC
Experiment: FACS binding assay
Conditions: read-out: pIC50 Category (converted)
Outline: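 Peptide binding read by flow cytometry as APC-channel median fluorescence, fitted with a four-parameter logistic to yield EC50 or IC50. Cells were hGIPR-transfected CHO-K1 in PBS with 1% FCS, detected with 1 μg/mL APC-streptavidin, 30 min on ice.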

[1] = competition with 20 nM GIP-057, 4° C. for 1 hour
[2] = competition with 20 nM GIP-057, 4° C., 1 hour

Row | SMILES | IC50 [1] [nM] | IC50 [2] [nM]
1 | CC[C@H](C)[C@@H]1NC(=O)[C@H](CC(C)C)NC(=O)C(C)(C)NC(=O)[C@@H](NC(=O)[C@@H](CC(C)C)NC(=O)[C@H](CCC(=O)O)NC(=O)[C@@H]2CCCN2C(=O)[C@H](Cc2c[nH]c3ccccc23)NC(=O)[C@H](Cc2c[nH]c3ccccc23)NC(=O)[C@H](CC(=O)O)NC(=O)CCc2ccc(O)cc2)CSCc2cccc(c2)CSC[C@@H](C(=O)NCCCOCCOCCOCCCNC(=O)CCC(=O)N[C@@H](CCCCNC(=O)CN2CCN(CC(=O)O)CCN(CC(=O)O)CCN(CC(=O)O)CC2)C(N)=O)NC1=O [GIP-137, 4OHPhp-Asp-Trp-Trp-Pro-Glu-leu-[Cys(3MeBn)-Aib-Leu-Ile-Cys]-Ttds-Lys(DOTA)-NH2] (Desaminotyrosyl-DWWPE[dL]C[Aib]LIC-X5; linker 7-11 via mXylylene) | – | 10 to 79.4
2 | CC[C@H](C)[C@@H]1NC(=O)[C@H](CC(C)C)NC(=O)C2(CCOCC2)NC(=O)[C@@H](NC(=O)[C@@H](CC(C)C)NC(=O)[C@H](CCC(=O)O)NC(=O)[C@@H]2C[C@@H](O)CN2C(=O)[C@H](Cc2c[nH]c3ccc(Cl)cc23)NC(=O)[C@H](Cc2c[nH]c3ccccc23)NC(=O)[C@H](CCC(=O)O)NC(C)=O)CSCc2cccc(n2)CSC[C@@H](C(N)=O)NC1=O [GIP-191, Ac-Asn-Trp-5Clw-Hyp-Glu-leu-[Cys(2Lut)-Thp-Leu-Ile-Cys]-NH2] (Ac-EW[Trp(5-Cl)][Hyp]E[dL]C[Thp]LIC-NH2; linker 7-11 via Pyridine(2,6-diCH2)) | – | < 10
3 | CC[C@H](C)[C@@H]1NC(=O)[C@H](CC(C)C)NC(=O)C2(CCOCC2)NC(=O)[C@@H](NC(=O)[C@@H](CC(C)C)NC(=O)[C@H](CCC(=O)O)NC(=O)[C@@H]2C[C@@H](O)CN2C(=O)[C@H](Cc2c[nH]c3ccc(Cl)cc23)NC(=O)[C@H](Cc2c[nH]c3ccccc23)NC(=O)CCC(=O)O)CSCc2cccc(n2)CSC[C@@H](C(=O)N[C@@H](CCCCNC(=O)CN2CCN(CC(=O)O)CCN(CC(=O)O)CCN(CC(=O)O)CC2)C(N)=O)NC1=O [GIP-115, HO-Succinyl-Trp-5Clw-Hyp-Glu-leu-[Cys(2Lut)-Thp-Leu-Ile-Cys]-Lys(DOTA)-NH2] (Suc-W[Trp(5-Cl)][Hyp]E[dL]C[Thp]LICK(DOTA)-NH2; linker 6-10 via Pyridine(2,6-diCH2)) | – | < 10

Further lines, results first:

Row | IC50 [1] [nM] | IC50 [2] [nM] | SMILES
4 | > 1000 | – | CC[C@H](C)[C@@H]1NC(=O)[C@H](CC(C)C)NC(=O)[C@H](C)NC(=O)[C@@H](NC(=O)[C@H](CC(C)C)NC(=O)[C@H](CCC(=O)O)NC(=O)[C@H]2CCCN2C(=O)[C@H](Cc2c[nH]c3ccccc23)NC(=O)[C@H](Cc2c[nH]c3ccccc23)NC(=O)[C@H](CC(=O)O)NC(=O)[C@H](Cc2ccc(O)cc2)NC(=O)[C@@H](N)CCSC)CSCc2cccc(c2)CSC[C@@H](C(N)=O)NC1=O [GIP-328, H-Met-Tyr-Asp-Trp-Trp-pro-Glu-Leu-[Cys(3MeBn)-Ala-Leu-Ile-Cys]-NH2] (H-MYDWW[dP]ELCALIC-NH2; linker 9-13 via mXylylene)
5 | 100 to 794 | – | CC[C@H](C)[C@@H]1NC(=O)[C@H](CC(C)C)NC(=O)C(C)(C)NC(=O)[C@@H](NC(=O)[C@@H](CC(C)C)NC(=O)[C@H](CCC(=O)O)NC(=O)[C@@H]2C[C@@H](O)CN2C(=O)[C@H](Cc2c[nH]c3ccc(Cl)cc23)NC(=O)CNC(=O)[C@H](CS(=O)(=O)O)NC(C)=O)CSCc2cccc(n2)CSCCNC1=O [GIP-316, Ac-Cya-Gly-5Clw-Hyp-Glu-leu-[Cys(2Lut)-Aib-Leu-Ile-AET]] (Ac-[Cya]G[Trp(5-Cl)][Hyp]E[dL]C[Aib]LI; linker 7-C via X6)
6 | > 1000 | – | CC[C@H](C)[C@@H]1NC(=O)[C@H](CC(C)C)NC(=O)[C@H](C)NC(=O)[C@@H](NC(=O)[C@H](CC(C)C)NC(=O)[C@H](CCC(=O)O)NC(=O)[C@@H]2CCCN2C(=O)[C@H](Cc2c[nH]c3ccccc23)NC(=O)[C@H](Cc2c[nH]c3ccccc23)NC(=O)[C@H](C)NC(=O)[C@H](Cc2ccc(O)cc2)NC(=O)[C@@H](N)CCSC)CSCc2cccc(c2)CSC[C@@H](C(N)=O)NC1=O [GIP-332] (H-MYAWWPELCALIC-NH2; linker 9-13 via mXylylene)
7 | < 10 | – | CC[C@H](C)[C@@H]1NC(=O)[C@H](CC(C)C)NC(=O)C2(CCOCC2)NC(=O)[C@@H](NC(=O)[C@@H](CC(C)C)NC(=O)[C@H](CCC(=O)O)NC(=O)[C@@H]2C[C@@H](O)CN2C(=O)[C@H](Cc2c[nH]c3ccc(Cl)cc23)NC(=O)[C@H](Cc2c[nH]c3ccc(F)cc23)NC(=O)[C@H](CC(=O)O)NC(C)=O)CSCc2cccc(n2)CSC[C@@H](C(N)=O)NC1=O [GIP-382, Ac-Asp-5Fw-5Clw-Hyp-Glu-leu-[Cys(2Lut)-Thp-Leu-Ile-Cys]-NH2] (Ac-D[Trp(5-F)][Trp(5-Cl)][Hyp]E[dL]C[Thp]LIC-NH2; linker 7-11 via Pyridine(2,6-diCH2))
